Entries after “also recorded” stand apart in the source; their conditions may differ.
Legend:
[1] = tested on: dSPN glutamatergic synapses; experiment: Spike-timing-dependent LTD induction (post-pre pairing) in dSPNs, ex vivo corticostriatal slices, perforated-patch or whole-cell recording; type: cell-based, mice
Text: Male C57Bl/6 and FVB mice expressing tdTomato or eGFP under control of either the Drd1 or Drd2 receptor regulatory elements were used. All the mice used for the study were hemizygous for these transgenes. For some experiments, D1-tdTomato BAC mice were crossed with a transgenic line expressing Cre recombinase under control of the ChAT promoter. All mice were 8-10 weeks of age before stereotaxic surgery. Animal use procedures were reviewed and approved by the Northwestern Institutional Animal Care and Use Committee.
Slices were then transferred to a holding chamber containing aCSF. After an incubation period at 34° C. for 30 min, the slices were then kept in the holding chamber at the room temperature for another 30 min before use.
Individual slices were transferred to a recording chamber and were continuously perfused (2-3 ml min^−1) with aCSF for the duration of the experiment. Experiments were performed in the dorsolateral striatum at elevated temperature (30-31° C.).
All the recordings were made using a MultiClamp 700 A amplifier, and signals were filtered at 2 kHz and digitized at 10 kHz. Data were excluded when the series resistance changed >20% over the time course of the experiment. […] Capacitance current was continuously monitored during perforation by applying a 5-10 mV pulse from a holding potential of −70 mV. The amplifier bridge circuit was adjusted to compensate for series resistance and continuously monitored during recordings. Electrode capacitance was also compensated. Data were excluded when the input resistance (Ri) changed >20% over the time course of the experiment.
Data analysis was conducted with Igor Pro 6 (Wavemetrics, Lake Oswego, Oreg.) and Clampfit 9 (Molecular Devices). EPSP amplitude was calculated from 50-60 sweeps immediately before the start of induction and 20-30 min after the end of induction. The change in EPSP amplitude was calculated by averaging EPSP values after the induction and normalized to the average baseline EPSP amplitude. Compiled data were expressed as mean±s.e.m. Statistical tests were performed using Excel (Microsoft, Redmond, Wash.) and SigmaStat (Systat, San Jose, Calif.). Non-parametric Mann-Whitney or Wilcoxon tests were used to assess the experiment results, using a probability threshold of 0.05.
To determine if M4Rs were modulating synaptic plasticity, a spike-timing-dependent plasticity (STDP) paradigm was used. […] Once identified, neurons were monitored and controlled with perforated-patch recording to preserve intracellular signaling mechanisms and to allow stable, long-term monitoring of synaptic strength (FIG. 1A).
Synaptic plasticity was induced by pairing local stimulation of glutamatergic afferent fibers with postsynaptic spikes evoked by short bursts of intracellular current injection that were repeated at 5 Hz (FIGS. 1B, 4A).

[2] = tested on: ChIs expressing DREADD hM3D(q); experiment: Discharge rate of DREADD hM3D(q)-expressing cholinergic interneurons, cell-attached patches in slices; type: cell-based, mice
Text: To determine the importance of endogenous cholinergic signaling in regulating synaptic plasticity, the discharge rate of ChIs was elevated using a Cre-dependent DREADD (Alexander et al., 2009; Armbruster et al., 2007; Ferguson et al., 2011; Kozorovitskiy et al., 2012; herein incorporated by reference in their entireties). Briefly, bi-transgenic mice expressing tdTomato in dSPNs and Cre-recombinase under control of the choline acetyltransferase (ChAT) promoter received striatal stereotaxic injections of an adeno-associated virus (AAV; serotype 2/8) containing the hM3D(q) expression construct (the University of North Carolina Vector Core). Mice were allowed to recover for 5-6 weeks before recordings. To activate the DREADD expressing ChIs, clozapine-N-oxide (CNO) was bath applied to ex vivo brain slice preparations.
To address the possibility that in an ex vivo slice preparation at 30-31° C., spontaneous ChI activity is low and could lead to effective enzymatic degradation of ACh near its release site and weak M4R activation, the ACh esterase inhibitor physostigmine (10 μM) was co-applied with the M4R PAM. […] Another way to compensate for lower than normal cholinergic signaling in ex vivo slices is to use designer receptors exclusively activated by designer drugs (DREADDs) to selectively increase ChI discharge rate (Alexander et al., 2009; Armbruster et al., 2007; herein incorporated by reference in their entireties). To this end, bi-transgenic mice expressing tdTomato in dSPNs and Cre-recombinase under control of the choline acetyltransferase (ChAT) promoter received striatal injections of an adeno-associated virus (AAV) containing an hM3D(q) expression construct having an upstream foxed STOP codon; this STOP codon is effectively excised by Cre-recombinase leading to DREADD expression (Ferguson et al., 2011; Kozorovitskiy et al., 2012; herein incorporated by reference in their entireties) (FIG. 2A). […]

[3] = tested on: dSPN glutamatergic synapses; experiment: Spike-timing-dependent LTP induction (pre-post pairing) in dSPNs, ex vivo slices; type: cell-based, mice
[4] = tested on: NMDAR-mediated currents in dSPNs; experiment: NMDAR-mediated uEPSCs and EPSCs in dSPNs, whole-cell voltage clamp; type: cell-based, mice; settings: muscarine 3 μM; local electrical stimulation
Experimental: For whole-cell voltage clamp recordings, patch pipettes were loaded with internal recording solution containing (mM): 120 CsMeSO3, 15 CsCl, 8 NaCl, 10 HEPES, 0.2 EGTA, 10 tetraethylammonium Chloride (TEA-Cl), 5 QX-314, 2 Mg-ATP, 0.3 Na-GTP; pH was adjusted to 7.25 with CsOH and osmolarity to ˜305 mOsm l^−1. All the recordings were made using a MultiClamp 700 A amplifier, and signals were filtered at 2 kHz and digitized at 10 kHz. Data were excluded when the series resistance changed >20% over the time course of the experiment. For perforated patch recordings, the internal recording solution comprised (in mM): 125 KMeSO4, 14 KCl, 2 MgCl2, 0.2 EGTA, 10 HEPES; pH was adjusted to 7.25 with NaOH and osmolarity to ˜280 mOsm l^−1. Amphotericin B was used to achieve electrical access through the perforated-patch method (Shen et al., 2007; 2008; herein incorporated by reference in their entireties). Capacitance current was continuously monitored during perforation by applying a 5-10 mV pulse from a holding potential of −70 mV. The amplifier bridge circuit was adjusted to compensate for series resistance and continuously monitored during recordings. Electrode capacitance was also compensated. Data were excluded when the input resistance (Ri) changed >20% over the time course of the experiment.
Glutamate uncaging was achieved using a Verdi/Mira (Coherent Laser Group, Santa Clara, Calif.) (Plotkin et al., 2014). 5 mM MNI-glutamate was superfused over the slice at 0.4 ml/hr using a syring pump and multi-barreled perfusion manifold (Cell MicroControls, Norfolk, Va.). The perfusion solution was (in mM): 124 NaCl, 3 KCl, 2 CaCl2, 1 NaH2PO4, 26 HEPES and 16.66 glucose, and also contained (in μM): 3 muscarine, 10 serine, 10 NBQX and 10 gabazine, plus or minus: 3 SKF81297 and/or 5 VU10010). Glutamate was uncaged adjacent to individual spines using 1 ms pulses of 720-725 nm light typically 10-20 mW in power at the sample plane. Photolysis power was tuned via a third Pockels cell modulator (Con Optics, Danbury, Conn.) to achieve uEPSCs≤5 pA. uEPSC amplitudes were measured from averaged (3-5 repetitions) traces. All uncaging experiments were performed in 0 mM Mg^2+-containing solutions.
To determine the situation in dSPNs, the effect of muscarine and VU10010 on NMDAR-mediated EPSCs evoked by uncaging glutamate on spine heads (uEPSCs) was examined in the presence of SKF81297.

forelimb use asymmetry = experiment: Forelimb-use asymmetry test (cylinder test) in 6-OHDA lesioned mice; type: in vivo; settings: for forelimb use asymmetry: n=9
Experimental: (§1) After LID induction, mice were treated with either L-DOPA or L-DOPA and VU152100 (20-120 mg/kg, i.p.) on days 6-8; VU152100 is an M4R PAM with improved pharmacokinetic properties than VU10010.

iSPN synapses = experiment: Pre-post pairing protocol in iSPNs from 6-OHDA lesioned, L-DOPA treated mice; settings: 6-OHDA lesioned mice shortly after L-DOPA treatment
L-DOPA-induced AIMs = experiment: Abnormal involuntary movement (AIM) scoring in unilateral 6-OHDA lesioned mice with L-DOPA-induced dyskinesia; type: in vivo
Experimental: as §1

[5] = tested on: phosphorylated ERK1/2 and phosphorylated histone 3; experiment: Cells immunoreactive for pERK1/2 and pH3 in the dorsolateral striatum of LID mice; type: in vivo
Experimental: as §1

[6] = VU152100 co-administered with L-DOPA vs L-DOPA

CCN1CCCC1CNC(=O)c1cc(S(N)(=O)=O)ccc1OC (stereo not drawn) [sulpiride]
LTD induction in dSPNs ([1]; sulpiride 10 μM with physostigmine 10 μM and VU10010 5 μM): LTD was induced

Cc1cccc(C#Cc2ccccc2)n1 [MPEP]
LTD induction in dSPNs ([1]; MPEP 10 μM with CCG203769): prevented the LTD induction; also recorded: LTD was disrupted

C[N+]1([O-])CCN(C2=Nc3cc(Cl)ccc3Nc3ccccc32)CC1 [CNO, clozapine-N-oxide]
ChI discharge rate, median ([2]; CNO 10 μM bath perfusion, n=5): 6.7 Hz
ChI discharge rate, range ([2]; CNO 10 μM bath perfusion, n=5): 4.2-7.8 Hz
ChI spontaneous discharge rate (in words) ([2]; CNO 10 μM, cell-attached patches): increased ChI spontaneous discharge rate
LTD induction in adjacent dSPNs ([1]; CNO 10 μM, elevated ChI activity via DREADD hM3D(q)): led to a robust LTD

Cc1c(C(=O)NN2CCCCC2)nn(-c2ccc(Cl)cc2Cl)c1-c1ccc(I)cc1 [AM251]
LTD induction in dSPNs ([1]; AM251 2 μM with CNO): dependent upon endocannabinoid (eCB) CB 1 receptors; also recorded: LTD was blunted

N[C@@H](CCCP(=O)(O)O)C(=O)O [APV]
LTD induction in dSPNs ([1]; APV 50 μM with VU10010 5 μM): LTD was inducible

CCCCn1c(=O)sn(CC)c1=O [CCG203769]
LTD induction in dSPNs ([1]; CCG203769 10 μM intracellular, without VU10010): enhanced induction of LTD; also recorded: promoted the induction of LTD
LTD induction in dSPNs ([1]; CCG203769 with VU+PHY+MT3 (M4R antagonized)): antagonizing M4Rs had no effect on dSPN LTD
LTD induction in dSPNs ([1]; CCG203769 with VU+PHY+MT3 (M4R antagonized), listed as CCG): enhanced LTD induction

N#CC(=C(/N)Sc1ccccc1N)/C(C#N)=C(\N)Sc1ccccc1N [U0126]
STDP LTP induction in dSPNs ([3]; U0126 10 μM, dyskinetic (LID) mice): prevented LTP induction; also recorded: LTP was disrupted
STDP LTP induction in dSPNs ([3]; U0126 10 μM, naive mice): disrupted STDP LTP; also recorded: LTP induction was disrupted

C[C@@H]1O[C@H](C[N+](C)(C)C)C[C@H]1O [muscarine]
amplitudes of NMDAR-mediated EPSCs [4]: reduced the amplitudes

N[C@@H](Cc1ccc(O)c(O)c1)C(=O)O [L-DOPA, L-3,4-dihydroxyphenylalanine]
forelimb use asymmetry (forelimb use asymmetry; L-DOPA alone): 47.98±2.41
STDP LTP induction in dSPNs ([3]; 6-OHDA lesioned mice, slices one hour after last L-DOPA injection): led to a robust LTP; also recorded: LTP was recovered
plasticity in iSPNs with pre-post pairing protocol (iSPN synapses): induced an LTD

COc1ccc(CNC(=O)c2sc3nc(C)cc(C)c3c2N)cc1 [VU152100]
forelimb use asymmetry (forelimb use asymmetry; L-DOPA+VU152100, p>0.05 vs L-DOPA): 38.6±3.04
effect on anti-parkinsonian action of L-DOPA (forelimb use asymmetry) (forelimb use asymmetry; VU152100 co-administered with L-DOPA): did not occur at the expense of the anti-parkinsonian action of L-DOPA
cumulative AIM scores (L-DOPA-induced AIMs; VU152100 60 mg/kg systemic, with L-DOPA): significantly reduced cumulative AIM scores
anti-dyskinetic effect on doubling the dose (L-DOPA-induced AIMs; VU152100 120 mg/kg, with L-DOPA): did not increase the anti-dyskinetic effect
AIM scores, dose relation (L-DOPA-induced AIMs; VU152100 20, 60, 120 mg/kg): dose-dependent effect
L-DOPA-induced AIM scores (L-DOPA-induced AIMs; VU152100 20-120 mg/kg i.p. with L-DOPA, days 6-8): significantly attenuated
level of phosphorylated ERK (pERK) ([5]; VU0152100 60 mg kg-1): reduced the levels of LID biomarkers
level of phosphorylated histone3 (pH3) ([5]; VU0152100 60 mg kg-1): reduced the levels of LID biomarkers
number of cells immunoreactive for phosphorylated ERK1/2 (pERK1/2) [5, 6]: reduced the number of cells; also recorded: reduced expression
number of cells immunoreactive for phosphorylated histone 3 (pH3) [5, 6]: reduced the number of cells; also recorded: reduced expression
